From PubChem BioAssay (NCI)
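Following 48 hours of exposure in 96-well plates, responses at five concentrations were used to interpolate endpoints linearly. Here, GI50 denotes the concentration required for 50% inhibition of growth. At the TGI there is no net growth.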

Key:
Assay in all cases: growth of human tumour cells (NCI), 48 h
[1] = test system: HCT-15 colon
[2] = test system: HS 578T breast
[3] = test system: MOLT-4 leukemia
[4] = test system: NCI-H23 lung
[5] = test system: NCI/ADR-RES ovarian
[6] = test system: OVCAR-5 ovarian
[7] = test system: OVCAR-8 ovarian
[8] = test system: SF-539 CNS
[9] = test system: SK-MEL-2 melanoma
[10] = test system: SNB-75 CNS

Compound `O=C(Nc1ccccc1O)c1ccc(Oc2cccc(C(=O)Nc3ccccc3O)c2)cc1` has a GI50 [1] of 2.52 µM, a TGI [1] of 12.3 µM and a GI50 [2] of 2.05 µM. The TGI [2] was 12.2 µM, the GI50 [3] was 0.767 µM and the TGI [3] was 6.85 µM. The GI50 [4] was 2.99 µM, the TGI [4] was 11.3 µM and the GI50 [5] was 1.5 µM. It also gave a TGI [5] of 6.7 µM, a GI50 [6] of 12.9 µM and a TGI [6] of 35 µM. The GI50 [7] was 2.03 µM, the TGI [7] was 11.2 µM and the GI50 [8] was 1.61 µM. It also gave a TGI [8] of 6.3 µM, a GI50 [9] of 1.73 µM and a TGI [9] of 5.87 µM. For the same compound, the GI50 [10] was 1.67 µM and the TGI [10] was 7.73 µM.

In the case of `CO[C@@H]1CC(=O)C2(CC(=O)O[C@@H]2/C=C(\C)CCC=C(C)C)C[C@@H]1O` (some centres undefined), the GI50 [1] is reported as 0.56 µM, the TGI [1] is reported as 1.55 µM and the GI50 [2] is reported as 4.74 µM. The TGI [2] was greater than 50 µM, the GI50 [3] was 0.233 µM and the TGI [3] was greater than 50 µM. For the same compound, the GI50 [4] was 0.358 µM, the TGI [4] was 1.14 µM and the GI50 [5] was 0.487 µM. It also gave a TGI [5] of 1.51 µM, a GI50 [6] of 0.769 µM and a TGI [6] of 1.96 µM. The GI50 [7] was 1.32 µM, the TGI [7] was greater than 10.5 µM and the GI50 [8] was 0.502 µM. For the same compound, the TGI [8] was 1.56 µM, the GI50 [9] was 1.39 µM and the TGI [9] was 4.88 µM. The GI50 [10] was 1.2 µM and the TGI [10] was 3.66 µM.

For `O=C(O)c1cc(N=Cc2ccccc2O)cc(C(=O)O)c1`, the TGI [1] was greater than 100 µM, the TGI [2] was greater than 100 µM and the TGI [3] was greater than 100 µM. The TGI [4] was greater than 100 µM, the TGI [5] was greater than 100 µM and the TGI [6] was greater than 100 µM. For the same compound, the TGI [7] was greater than 100 µM, the TGI [8] was greater than 100 µM and the TGI [9] was greater than 100 µM. It also gave a TGI [10] greater than 100 µM.

Work on `Cc1ccc2c(c1)NC(=O)CC(c1ccccc1)=N2` yielded a TGI [1] greater than 100 µM, a TGI [2] greater than 100 µM and a TGI [3] of 85.8 µM. The TGI [4] was greater than 100 µM, the TGI [5] was greater than 100 µM and the TGI [6] was greater than 100 µM. It also gave a TGI [7] greater than 100 µM, a TGI [8] greater than 100 µM and a TGI [9] greater than 100 µM. For the same compound, the TGI [10] was greater than 100 µM.

Compound `c1ccc(-c2nc(-c3ccccc3)c(-c3ccccc3)[nH]2)cc1` has a TGI [1] greater than 100 µM, a TGI [2] greater than 82 µM and a TGI [3] greater than 57 µM. For the same compound, the TGI [4] was greater than 100 µM, the TGI [5] was greater than 100 µM and the TGI [6] was greater than 100 µM. For the same compound, the TGI [7] was greater than 100 µM, the TGI [8] was greater than 100 µM and the TGI [9] was greater than 100 µM. The TGI [10] was greater than 100 µM.

`COc1cccc(/C=C/c2cnc3ccccc3n2)c1OC` was tested, and the TGI [1] was 92.7 µM, the TGI [2] was 68.5 µM and the TGI [3] was 68.1 µM. The TGI [4] was greater than 100 µM, the TGI [5] was 60.1 µM and the TGI [6] was greater than 100 µM. It also gave a TGI [7] greater than 100 µM, a TGI [8] greater than 100 µM and a TGI [9] of 98.5 µM. It also gave a TGI [10] of 79.6 µM.

`C=CC1CC12C(=O)C1OC2(C)C2C(=O)c3c(O)ccc(O)c3C(=O)C12` (centres undefined) gave a GI50 [1] of 2 µM, a TGI [1] of 5.05 µM and a GI50 [2] of 7.44 µM. The TGI [2] was 19.3 µM, the GI50 [3] was 0.617 µM and the TGI [3] was 17 µM. The GI50 [4] was 2.95 µM, the TGI [4] was 8.01 µM and the GI50 [5] was 3.76 µM. The TGI [5] was 12.1 µM, the GI50 [6] was 5.69 µM and the TGI [6] was 12 µM. The GI50 [7] was 6.24 µM, the TGI [7] was 20.2 µM and the GI50 [8] was 4.5 µM. It also gave a TGI [8] of 14.8 µM, a GI50 [9] of 14.5 µM and a TGI [9] greater than 100 µM. For the same compound, the GI50 [10] was 6.03 µM and the TGI [10] was 15.3 µM.

For `O=C(CCl)N1c2ccccc2Sc2ccc3ccccc3c21`, the GI50 [1] was 1.09 µM, the TGI [1] was 2.53 µM and the GI50 [2] was 2.04 µM. It also gave a TGI [2] of 6.56 µM, a GI50 [3] of 0.478 µM and a GI50 [4] of 1.18 µM. The TGI [4] was 2.54 µM, the GI50 [5] was 2.18 µM and the TGI [5] was 5.26 µM. It also gave a GI50 [6] of 1.48 µM, a TGI [6] of 3.03 µM and a GI50 [7] of 1.64 µM. The TGI [7] was 3.71 µM, the GI50 [8] was 1.72 µM and the TGI [8] was 3.15 µM. The GI50 [9] was 1.97 µM, the TGI [9] was 3.8 µM and the GI50 [10] was 1.16 µM. For the same compound, the TGI [10] was 2.4 µM.

Work on `O=C(Cc1cccc(OC(F)(F)F)c1)Nc1ccc(CCCCc2nnc(NC(=O)Cc3ccccn3)s2)nn1` yielded a GI50 [1] greater than 100 µM, a TGI [1] greater than 100 µM and a GI50 [2] of 13.8 µM. For the same compound, the TGI [2] was 40.2 µM, the GI50 [3] was 5.49 µM and the TGI [3] was greater than 100 µM. It also gave a GI50 [4] of 13.1 µM, a TGI [4] of 45.8 µM and a GI50 [5] greater than 100 µM. The TGI [5] was greater than 100 µM, the GI50 [6] was greater than 100 µM and the TGI [6] was greater than 100 µM. It also gave a GI50 [7] of 15.8 µM, a TGI [7] of 54.8 µM and a GI50 [8] of 15.7 µM. The TGI [8] was 50.3 µM, the GI50 [9] was 19 µM and the TGI [9] was 47.5 µM. It also gave a GI50 [10] of 11.1 µM and a TGI [10] of 38.6 µM.

Compound `Cc1ccc(SC2=CC(=O)c3nc4ccccc4c4ccnc2c34)cc1` has a GI50 [1] of 18.4 µM, a TGI [1] of 40.6 µM and a GI50 [2] of 43.8 µM. The TGI [2] was greater than 95 µM, the GI50 [3] was 42.8 µM and the TGI [3] was greater than 100 µM. It also gave a GI50 [4] of 24.7 µM, a TGI [4] greater than 73.9 µM and a GI50 [5] of 27.9 µM. For the same compound, the TGI [5] was greater than 95.4 µM, the GI50 [6] was greater than 79.9 µM and the TGI [6] was greater than 100 µM. The GI50 [7] was 18 µM, the TGI [7] was 41.2 µM and the GI50 [8] was 33.9 µM. The TGI [8] was 83 µM, the GI50 [9] was 21.2 µM and the TGI [9] was 58.2 µM. For the same compound, the GI50 [10] was 39.8 µM and the TGI [10] was greater than 100 µM.

With `C=CC(=O)N[C@H]1CCOC[C@H]1Nc1ncc2cc(-c3c(Cl)c(OC)cc(OC)c3Cl)ccc2n1` the GI50 [1] was 7.89 µM, the TGI [1] was 84.4 µM and the GI50 [2] was 17.8 µM. It also gave a TGI [2] greater than 100 µM, a GI50 [3] of 6.43 µM and a TGI [3] greater than 100 µM. The GI50 [4] was 22 µM, the TGI [4] was greater than 100 µM and the GI50 [5] was 20.7 µM. For the same compound, the TGI [5] was greater than 100 µM, the GI50 [6] was 45.1 µM and the TGI [6] was greater than 100 µM. For the same compound, the GI50 [7] was 39.3 µM, the TGI [7] was greater than 100 µM and the GI50 [8] was 12.5 µM. It also gave a TGI [8] of 29.9 µM, a GI50 [9] of 11.9 µM and a TGI [9] of 31.7 µM. It also gave a GI50 [10] of 12 µM and a TGI [10] greater than 100 µM.

`C=CCC1(O)c2cccc(NCCO)c2C(=O)c2c(NCCO)cccc21` showed a GI50 [1] greater than 100 µM, a TGI [1] greater than 100 µM and a GI50 [2] greater than 100 µM. The TGI [2] was greater than 100 µM, the GI50 [3] was greater than 100 µM and the TGI [3] was greater than 100 µM. The GI50 [4] was greater than 100 µM, the TGI [4] was greater than 100 µM and the GI50 [5] was greater than 100 µM. It also gave a TGI [5] greater than 100 µM, a GI50 [6] greater than 100 µM and a TGI [6] greater than 100 µM. For the same compound, the GI50 [7] was greater than 100 µM, the TGI [7] was greater than 100 µM and the GI50 [8] was greater than 100 µM. For the same compound, the TGI [8] was greater than 100 µM, the GI50 [9] was greater than 100 µM and the TGI [9] was greater than 100 µM. The GI50 [10] was 75.3 µM and the TGI [10] was greater than 100 µM.
